The values below come from patent publication EP2889299A1, “Fluorescent red emitting functionalizable pH probes” (Paris Sciences et Lettres - Quartier Latin, priority 2013, dated 2015).

Read-outs that look alike come from different tables or passages of the source.

The nature of series [1]: Optical properties of the second (blue) fluorophore. Type of series: physicochemical. The following applies: measured in CH3CN/H2O. An excerpt:
In addition to having the correct absorption and emission wavelengths, the chosen second fluorophore must feature a terminal alkyne to make it "clickable" with the azide-containing pH probe I-1. The acridone 5 was selected, having the following optical properties (measured in CH3CN/H2O): […]

Series [2] can be described thus: Absorption spectra and molar extinction coefficient (Beer Lambert law). Type of series: physicochemical. The following applies: for λabs: maximum absorption wavelength. How it is done:
(§1) All the solvents were of analytical grade. Chemicals were purchased from commercial sources. The salts used in stock solutions of metal ions were CaCl2·2H2O, CuCl2·2H2O, FeCl3·6H2O, MgCl2·6H2O, MnCl2·4H2O, ZnBr2. ^1H-NMR and ^13C-NMR were measured on a Bruker avance III-300 MHz spectrometer with chemical shifts reported in ppm (TMS as internal standard). Mass spectra were measured on a Focus GC / DSQ II spectrometer (ThermoScientific) for IC and an API 3000 spectrometer (Applied Biosystems, PE Sciex) for ES. All pH measurements were made with a Mettler Toledo pH-Meter. Fluorescence spectra were recorded on a JASCO FP-8300 spectrofluorometer. Absorption spectra were determined on a VARIAN CARY 300 Bio UV-Visible spectrophotometer. All measurements were done at a set temperature of 25°C. The purity of the dyes were checked by RP-HPLC C-18, eluant: ACN 0.1% TFA/Water 0.1 % TFA, method: 20/80 to 100/0 within 20 min. then 100/0 for 10 min. detection at λabs= 254 nm.
Molar extinction coefficient calculations. Extinction coefficients (ε) were calculated using the Beer Lambert law (equation 3) plotting optical density/absorption versus concentration for the pH probes. The gradient of the plot is equal to ε. A = εc1 [formula] • A = optical density/absorption • ε = extinction coefficient = gradient of the plot • c = concentration • 1= optical path length (1 cm)
The dependence of absorption on pH for probe I-1 was determined in a MOPS buffered aqueous solution. Results are represented in figure 2.

Series [3] can be described thus: Fluorescence spectra, quantum yield and dynamic range. The format is physicochemical. As to conditions: for λem: excitation at 535 nm, maximum emission wavelength; for Φ: MOPS 30 mM, KCl 100 mM, reference Rhodamine 101, excitation 535 nm; for Dynamic Range: maximal value of (I-Imin)/Imin; for ΦON/ ΦOFF: ratio of quantum yields at pH 4 and pH 10. On the procedure: as §1
Dynamic range. The term dynamic range refers to the maximal value of equation 1 where I is the observed fluorescence intensity and Imin is the minimum fluorescence intensity observed for that probe. The larger the dynamic range the better as it indicates good differentiation between "on" and "off' states. Dynamic Range = ((I-Imin))/(Imin) [formula]
Quantum yield calculations. The fluorescence quantum yields (Φ) were calculated from the gradient of integrated fluorescence intensity (545 to 700 nm) versus optical density. Rhodamine 101 (Φ = 1.0 in absolute ethanol) was used as a reference standard (ref) with the excitation wavelength at 535 nm. Equation 2 was used to determine the Φ values. Φ = Φref (grad.)/(grad.ref).(η^2)/(ηref^2) [formula] • Φ = quantum yield • η = refractive index of the solvent system (η (H2O) = 1.33, ηref (EtOH) = 1.36) grad. = gradient of the curve
ΦON (pH = 4) and ΦOFF (pH = 10) were calculated for each pH probe in MOPS 30 mM, KCl 100 mM.
The dependence of fluorescence intensity on pH for probe I-1 was determined in a MOPS buffered aqueous solution after excitation at 535 nm. Results are represented in figure 3.

Series [4] is described as follows: pKa calculation from fluorescence intensity versus pH (Hill equation fit). Type of series: physicochemical. The following applies: fluorescence intensity at λem,max versus pH, 25°C. How it is done: pKa calculations. pKa values were calculated by plotting the fluorescence intensity at λem.,max versus the pH. The data was fit to the Hill Equation (equation 4) and the pKa taken as x1/2 as per the Hill equation. base + ((max-base))/(1 + (((x1/2)/(x)))^rate) [formula] • base = y value at minimum x-value • max = y value at maximum x-value • rate = rise rate of the curve • x1/2 = x value at which y = (base + max)/2.
The dependence of fluorescence enhancement on pH was determined for probes I-1, I-3 and I-4. Results are represented in figure 4A, 4B, and 4C respectively. Curve fitting was based on a modified Hill equation from which pKa values were calculated.

Series [5] deals with F98 cells. Description: Dose response by flow cytometry (probe internalization). The format is cell-based, rat. As to conditions: F98 cells incubated for two hours. On the procedure:
Cell calture for flow cytometry, dose response and cellular imaging: F98 and CHO-K1 cell lines (purchased from ATCC) were maintained at 37°C in 5% CO2 in DMEM/F-12 nutrient medium (Invitrogen, Cergy Pontoise, France) supplemented with 2% (v/v) heat-inactivated fetal bovine serum (Invitrogen) and 100 µg/mL streptomycine and 100 units/mL penicillin (Invitrogen).
Fluorescence Activated Cell Sorting Analyses: F98 cells were incubated with various concentrations of pH probes in DMEM/F-12 culture medium without serum at 37 °C for 2h. The cells were washed with PBS to remove excess fluorescent probe and were treated with 0.05% Trypsin-EDTA for 2 min at 37°C to detach the cells from the surface, and centrifuged at 200 g in DMEM/F-12 culture medium before suspension in PBS. Flow cytometry analyses were performed with live cells using an Accuri C6 flow cytometer (BD Biosciences, Le Pont de Claix, France). The data was obtained and analysed using CFlow Sampler (BD Biosciences). Live cells were gated by forward/side scattering for a total of 10,000 events.
Undifferentiated malignant glioma rat cells (F98) were incubated with probe I-1 for two hours at increasing concentrations and the fluorescence intensity measured. Results are represented in figure 7.
In general terms: Flow cytometry measures light scatter and fluorescence of single cells or particles in a stream.

Series [6] in a line: Fluorescence of the ratiometric dual-fluorophore probe as a function of pH. The format is physicochemical. An excerpt: • Figure 1 is a drawing schematically representing the red-emitting pH probe of the invention. • Figure 2 is a graph representing the dependence of absorption on pH in a MOPS buffered aqueous solution for compound I-1. • Figure 3 is a graph representing the dependence of fluorescence intensity on pH in a MOPS buffered aqueous solution after excitation at 535 nm, for compound I-1. • Figure 4A-4C are graphs representing the dependence of fluorescence enhancement on pH for compounds I-1 (4A), I-3 (4B) and I-4 (4C). • Figure 5 is a graph representing fluorescence intensities of compound I-1 (5 µM) in presence of a range of metal ions in a MOPS buffer (MOPS 30 mM, KCl 100 mM, pH 7.2). The concentration of cations is 10^-3 M. • Figure 6 is a graph representing CCK-8 test results for compound I-1 indicating cytotoxicity. The probe was incubated with Chinese hamster ovary cells (CHO-K1) for 2 hours at 37°C. • Figure 7 is a dose response diagram for F98 cells incubated with pH probe I-1. • Figure 8 is a graph representing the fluorescence spectrum for the dual-fluorophore I-5 (5 µM) measured in an aqueous MOPS buffered solution/MeOH, 91/9. • Figure 9 is a plot of I∼612/I439 versus pH at excitation wavelength 405 nm for compound I-5. I∼612 and I439 are the respective fluorescence intensities of the system at ∼612nm corresponding to the X-rhodamine red-emission and at 439nm corresponding to the acridone blue-emission.
The peak centred at 439 nm corresponding to emission from the acridone fluorophore and the peak centred at 612 nm to that of the X-rhodamine. The blue acridone emission is not dependent on pH while the red X-rhodamine emission is dependent on pH.
In order to visualize the intensity ratio between the two emission signals a plot of I∼612/I439 versus pH was plotted (figure 9). I∼612 and I439 are the respective fluorescence intensities of the system at ∼612 nm corresponding to the X-rhodamine red-emission and at 439 nm corresponding to the acridone blue-emission.

For series [7] the following is noted: in absolute ethanol; reference standard; cited from earlier work.
For series [8], the system named is CHO-K1 cells. As to the kind of experiment: Cytotoxicity, CCK-8 cell counting kit. Type of series: cell-based, Chinese hamster. As to conditions: 1% Triton; positive control. How it is done: Cytotoxicity: CHO-K1 cells (20,000 per well) were seeded in 96 multiple well plates for 24 h before the experiment. Cells (40,000 per well) were incubated with the fluorescent compounds in 100 µL DMEM for 2h at 37°C. The incubation medium was replaced by 100µL fresh DMEM containing 10% of cell-counting solution (Dojindo Laboratories) and further incubated for 2h at 37°C. The absorbance was measured at 450 nm (reference at 620 nm) and was directly related to the number of living cells. Experiments were done in triplicate and repeated twice.
To determine cytotoxicity a CCK-8 cell counting kit was used. This can be bought commercially and relies upon the reduction of a highly water-soluble tetrazolium salt (WST-8). This compound is slightly yellow in color, however, upon reduction to its corresponding formazan species it becomes bright orange. The optical density of the absorbance corresponding to the orange formazan species, detected at 450nm, can be measured and correlated to the number of living cells. A decrease in optical density corresponds directly to a decrease in the quantity of formazan molecules indicating fewer living cells due to cell death/cytotoxicity. The reduction of WST-8 is achieved by exploiting the redox reactions of NAD+, a coenzyme found in all living cells. Cellular NAD+ is constantly being reduced to NADH by dehydrogenases as a natural part of a cell's metabolism. […]
For orientation: Tetrazolium dyes change colour on reduction, which living cells bring about.

[9] abbreviates: 5 µM, aqueous MOPS buffered solution/MeOH, 91/9.

For the compound `C#CCCCn1c2ccccc2c(=O)c2ccccc21`, in series [1], the λabs came to 408 nm and the λem is 425 nm. The FWHM in series [1] (full width at half maximum) was 49.
As a reminder, the pKa is the negative logarithm of the acid dissociation constant. With `[N-]=[N+]=NCCCNC(=O)c1cc(C2=c3cc4c5c(c3Oc3c2cc2c6c3CCCN6CCC2)CCC[N+]=5CCC4)ccc1O` [Compound I-1], the ε was determined as 26706 M⁻¹ cm⁻¹ in series [2] (OFF, deprotonated form: pH 10) and 26742 M⁻¹ cm⁻¹ in series [2] (ON, protonated form: pH 4). Besides, the λabs was 574 nm in series [2] (OFF, deprotonated form: pH 10) and 580 nm in series [2] (ON, protonated form: pH 4). The absorbs light at in series [2] (red region of the spectrum) was 580 nm. In addition, the λem in series [3] (OFF, deprotonated form: pH 10) was found to be 596 nm; in series [3] (ON, protonated form: pH 4), 600 nm. For the same compound, the Φ in series [3] (OFF, pH 10) worked out at 0.009; in series [3] (ON, pH 4), 0.254. The “Dynamic Range” value in series [3] came out at 88. The “ΦON/ ΦOFF” value in series [3] turned out to be 28. Also, the pKa in series [4] was 3.96. Moreover, the “fluorescence intensity of cells at increasing concentrations of probe” value in series [5] was “increase of fluorescence with increasing concentration of probe”.
Take `C#CCOC(=O)N1CCN(C(=O)c2cc(C3=c4cc5c6c(c4Oc4c3cc3c7c4CCCN7CCC3)CCC[N+]=6CCC5)ccc2O)CC1` [Compound I-3]: the ε turned out to be 49298 M⁻¹ cm⁻¹ in series [2] (OFF, deprotonated form: pH 10) and 72405 M⁻¹ cm⁻¹ in series [2] (ON, protonated form: pH 4). The λabs in series [2] (OFF, deprotonated form: pH 10) was determined as 575 nm; in series [2] (ON, protonated form: pH 4) it was 580 nm. For the same compound, the λem in series [3] (OFF, deprotonated form: pH 10) was 602 nm; in series [3] (ON, protonated form: pH 4), 601 nm. Besides, the Φ in series [3] (OFF, pH 10) is on record as 0.016; in series [3] (ON, pH 4) it was 0.640. Also, the “Dynamic Range” value in series [3] is 86. Also, the “ΦON/ ΦOFF” value in series [3] worked out at 40. Moreover, the pKa in series [4] is 7.68.
In the case of `C#CCN1CCN(C(=O)c2cc(C3=c4cc5c6c(c4Oc4c3cc3c7c4CCCN7CCC3)CCC[N+]=6CCC5)ccc2O)CC1` [Compound I-4], the ε is 20712 M⁻¹ cm⁻¹ in series [2] (OFF, deprotonated form: pH 10) and 35109 M⁻¹ cm⁻¹ in series [2] (ON, protonated form: pH 4). Also, the λabs came to 574 nm in series [2] (OFF, deprotonated form: pH 10) and 580 nm in series [2] (ON, protonated form: pH 4). For the same compound, the λem in series [3] (OFF, deprotonated form: pH 10) turned out to be 600 nm; in series [3] (ON, protonated form: pH 4), 601 nm. For the same compound, the Φ is listed as 0.023 in series [3] (OFF, pH 10) and 0.798 in series [3] (ON, pH 4). Moreover, the “Dynamic Range” value in series [3] came to 98. In series [3], the “ΦON/ ΦOFF” value is recorded as 35. Further, the pKa in series [4] is 7.64.
For `O=C(NCCCn1cc(CCCn2c3ccccc3c(=O)c3ccccc32)nn1)c1cc(C2=c3cc4c5c(c3Oc3c2cc2c6c3CCCN6CCC2)CCC[N+]=5CCC4)ccc1O` [Compound I-5], in series [6] (setting [9]), the “emission peak of the X-rhodamine” value was 612 nm and the “emission peak of the acridone fluorophore” value stood at 439 nm. In series [6] (excitation wavelength 405 nm, as the system was acidified), the “I∼612/I439 ratio” value is given as “four-fold increase”.
As to `O=C(O)c1ccccc1C1=c2cc3c4c(c2Oc2c1cc1c5c2CCCN5CCC1)CCC[N+]=4CCC3.[Cl-]` [Rhodamine 101], the Φ in series [7] is 1.0.
Consider Triton, for which the cell death entry in series [8] is given as “total cell death”.
